The assay concerns the target T1, CFTR (Homo sapiens, UniProt P13569, DEL508-508).
T1 construct: endogenous in cells; host or cells: primary human bronchial epithelial cells from CF subjects (F508del/MF-HBE), differentiated at air-liquid interface
As to the kind of experiment: HBE assay: Ussing chamber assay of CFTR-mediated short-circuit currents. The class given is cell-based. Particulars: for EC50: read-out: HBE EC50. A digest of the protocol: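 CFTR-mediated Isc (μA/cm²) equals the peak response to apical 20 μM forskolin minus the residual after a 20 μM each BPO/GlyH-101/CFTR inhibitor 172 cocktail, recorded in Ussing chambers at Vhold 0 mV, 37 °C, pH 7.4, with 30 μM apical amiloride. Cells were F508del/MF HBE cultures preincubated 18-24 h with corrector (concentration range or 10 μM) plus 1 μM ivacaftor in 20% human serum.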

The mark [1] stands for this setting: Table 12, read-out: HBE Max Activity (%).
[2] abbreviates: Table 11, read-out: HBE Max Activity (%).
Where [3] appears, read: Table 12, at 10 μM, read-out: HBE Activity at 10 μM (%).
The mark [4] stands for this setting: Table 10, read-out: HBE Max activity (%).
[5] abbreviates: HBE assay, read-out: HBE Max activity (%).
[6] abbreviates: Table 10, at 10 μM, read-out: HBE activity at 10 (μM) (%).
Where [7] appears, read: Table 13, read-out: HBE Max Activity (%).
Setting [8] is: Table 13, at 10 μM, read-out: HBE Activity at 10 μM (%).
[9] abbreviates: HBE assay, 10 μM, read-out: HBE Activity at 10 μM (%).

Usually EC50 stands for the concentration at which the effect is half-maximal.

Where two headings read alike, the source gives them in different places.

T1 sequence (P13569 with tags, fused parts or gaps DEL508-508): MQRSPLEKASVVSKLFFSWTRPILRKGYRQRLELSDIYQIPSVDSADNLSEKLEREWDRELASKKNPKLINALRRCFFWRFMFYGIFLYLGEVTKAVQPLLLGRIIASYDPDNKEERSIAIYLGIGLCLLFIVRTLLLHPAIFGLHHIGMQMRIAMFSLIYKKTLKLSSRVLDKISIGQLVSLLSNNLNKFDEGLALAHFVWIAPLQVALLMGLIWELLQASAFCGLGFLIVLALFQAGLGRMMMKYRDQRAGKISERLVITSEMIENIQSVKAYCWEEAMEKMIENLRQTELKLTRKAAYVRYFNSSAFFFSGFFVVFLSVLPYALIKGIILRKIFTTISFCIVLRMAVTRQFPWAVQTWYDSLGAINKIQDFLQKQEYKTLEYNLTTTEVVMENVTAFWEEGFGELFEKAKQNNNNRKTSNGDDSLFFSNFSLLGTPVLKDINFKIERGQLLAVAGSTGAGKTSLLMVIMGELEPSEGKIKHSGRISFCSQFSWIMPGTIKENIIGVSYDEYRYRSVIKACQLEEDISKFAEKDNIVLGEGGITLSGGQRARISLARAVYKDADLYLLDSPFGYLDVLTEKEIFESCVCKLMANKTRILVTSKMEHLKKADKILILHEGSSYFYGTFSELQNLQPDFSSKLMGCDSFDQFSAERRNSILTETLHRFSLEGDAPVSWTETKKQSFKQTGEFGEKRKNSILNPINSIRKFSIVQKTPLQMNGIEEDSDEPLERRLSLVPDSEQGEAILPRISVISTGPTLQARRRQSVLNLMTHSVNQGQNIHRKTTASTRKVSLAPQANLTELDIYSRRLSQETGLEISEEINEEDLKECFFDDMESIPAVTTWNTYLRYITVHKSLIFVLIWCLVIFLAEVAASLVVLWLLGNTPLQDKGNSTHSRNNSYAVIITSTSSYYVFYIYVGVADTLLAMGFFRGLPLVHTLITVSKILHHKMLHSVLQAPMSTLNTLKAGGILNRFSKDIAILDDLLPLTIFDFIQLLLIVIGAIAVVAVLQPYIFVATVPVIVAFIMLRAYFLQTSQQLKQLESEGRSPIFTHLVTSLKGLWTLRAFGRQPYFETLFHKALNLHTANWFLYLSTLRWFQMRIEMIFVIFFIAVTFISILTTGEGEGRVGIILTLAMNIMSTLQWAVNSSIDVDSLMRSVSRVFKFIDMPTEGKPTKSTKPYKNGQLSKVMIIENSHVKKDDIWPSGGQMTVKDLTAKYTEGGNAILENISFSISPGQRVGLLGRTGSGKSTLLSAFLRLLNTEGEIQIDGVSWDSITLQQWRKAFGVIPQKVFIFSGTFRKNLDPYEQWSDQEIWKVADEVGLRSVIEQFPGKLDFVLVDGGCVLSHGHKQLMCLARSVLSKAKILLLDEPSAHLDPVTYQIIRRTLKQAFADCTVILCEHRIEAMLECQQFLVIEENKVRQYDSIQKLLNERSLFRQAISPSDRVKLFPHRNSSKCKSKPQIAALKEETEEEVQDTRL

As to `Cc1cccc(C)c1-c1cc2cc(n1)NS(=O)(=O)c1cccc(c1)C(=O)N(Cc1cncc(N(C)CC(C)(C)C)n1)[C@H](CC(C)(C)C)CO2` [Compound 527], the EC50 (Table 12) is less than 1000 nM. Moreover, the Emax under setting [1] was more than 60%.
Take `Cc1cccc(C)c1-c1cc2nc(n1)NS(=O)(=O)c1cccc(c1)C(=O)N(CC1CCOCC1)[C@H](CC(C)(C)C)CO2` [Compound 820]: the EC50 (Table 11) was less than 1000 nM. The Emax under setting [2] is more than 60%.
As to `Cc1cccc(C)c1-c1cc2nc(n1)NS(=O)(=O)c1cccc(c1)C(=O)N(Cc1nc(C3CC3)cs1)[C@H](CC(C)(C)C)CO2` [Compound 701], the activation at 10 µM under setting [3] is more than 600%.
As for `Cc1cccc(C)c1-c1cc2nc(n1)NS(=O)(=O)c1cccc(c1)C(=O)N(Cc1ccc(-c3cn[nH]c3)cn1)[C@H](CC(C)(C)C)CO2` [Compound 299], the EC50 (Table 10) was less than 1000 nM. Under setting [4], the Emax is more than 60%.
`Cc1cccc(C)c1-c1cc2nc(n1)NS(=O)(=O)c1cccc(c1)C(=O)N(CC1CCCC(C)(C)O1)[C@H](CC(C)(C)C)CO2` (single isomer, unassigned) [Compound 19]: the activation at 10 µM (Table 11, at 10 μM, read-out: HBE Activity at 10 μM (%)) was more than 60%.
With `Cc1cccc(C)c1-c1cc2nc(n1)NS(=O)(=O)c1cccc(c1)C(=O)N(Cc1cncc(NC3CCCC34CCC4)n1)[C@H](CC(C)(C)C)CO2` (some centres unmarked) [Compound 1348], under “HBE assay”, the EC50 is less than 1000 nM. In addition, under setting [5], the Emax is more than 60%.
In the same order, the values of `CC[C@@H](C)Oc1cnc(CN2C(=O)c3cccc(c3)S(=O)(=O)Nc3nc(cc(-c4c(C)cccc4C)n3)OC[C@H]2CC2CC2)nc1` [Compound 1447] are less than 1000 nM and more than 60%.
Regarding `Cc1cnc(CN2C(=O)c3cccc(c3)S(=O)(=O)Nc3nc(cc(-c4c(C)cccc4C)n3)OC[C@H]2CC(C)(C)C)nc1N(C)C(C)C` [Compound 330], the activation at 10 µM under setting [3] was more than 600%.
On to `Cc1cccc(C)c1-c1cc2nc(n1)NS(=O)(=O)c1cccc(c1)C(=O)N(Cc1cnc(N3CCOCC3)s1)[C@H](CC(C)(C)C)CO2` [Compound 693], for which, under setting [3], the activation at 10 µM fell in the range of 30 to 60%.
Regarding `Cc1cccc(C)c1-c1cc2nc(n1)NS(=O)(=O)c1cccc(c1)C(=O)N(Cc1ncccc1-c1cn[nH]c1)[C@H](CC(C)(C)C)CO2` [Compound 53, (11R)-6-(2,6-Dimethylphenyl)-11-(2,2-dimethylpropyl)-2,2-dioxo-12-[[3-(1H-pyrazol-4-yl)-2-pyridyl]methyl]-9-oxa-2λ^6-thia-3,5,12,19-tetrazatricyclo[12.3.1.14,8]nonadeca-1(18),4(19),5,7,14,16-hexaen-13-one], the activation at 10 µM under setting [6] was more than 60%. Besides, the EC50 (Table 10) is less than 1000 nM. Under setting [4], the Emax was more than 60%.
Consider `Cc1cccc(C)c1-c1cc2nc(n1)NS(=O)(=O)c1cccc(c1)C(=O)N(Cc1cncc(N3CCCC[C@H]3C3CC3)n1)[C@H](CC(C)(C)C)CO2` [Compound 1532], for which the activation at 10 µM (read-out: HBE Activity at 10 μM (%)) was more than 60%.
For `Cc1cccc(C)c1-c1cc2nc(n1)NS(=O)(=O)c1cccc(c1)C(=O)N(Cc1ncc(N3CC4(COC4)C3)cn1)[C@H](CC(C)(C)C)CO2` [Compound 867], the EC50 (Table 13) is less than 1000 nM. Also, the Emax under setting [7] was more than 60%.
With `Cc1cccc(C)c1-c1cc2nc(n1)NS(=O)(=O)c1cccc(c1)C(=O)N(Cc1cccc(N(C)C3CCOCC3)n1)[C@H](CC(C)(C)C)CO2` [Compound 1371], the EC50 (HBE assay) was less than 1000 nM. Under setting [5], the Emax was more than 60%.
Turning to `Cc1cccc(C)c1-c1cc2nc(n1)NS(=O)(=O)c1cccc(c1)C(=O)N(CC1CCC(N3CCOCC3)CC1)[C@H](CC(C)(C)C)CO2` (single isomer, unassigned) [Compound 153], the EC50 (Table 10) was less than 1000 nM.
As to `Cc1cccc(C)c1-c1cc2nc(n1)NS(=O)(=O)c1cccc(c1)C(=O)N(CC(=O)NCc1cnccn1)[C@H](CC(C)(C)C)CO2` [Compound 216], the activation at 10 µM under setting [3] is more than 600%.
For the molecule `Cc1cccc(C)c1-c1cc2nc(n1)NS(=O)(=O)c1cccc(c1)C(=O)N(Cc1cnccc1N1CCOCC1)[C@H](CC(C)(C)C)CO2` [Compound 376], the EC50 (Table 10) was less than 1000 nM. In addition, the Emax under setting [4] was more than 60%.
For the molecule `Cc1cccc(C)c1-c1cc2nc(n1)NS(=O)(=O)c1cccc(c1)C(=O)N(Cc1cccc(N3CCC[C@@H]3C#N)n1)[C@H](CC(C)(C)C)CO2` [Compound 533], the activation at 10 µM under setting [8] is more than 600%.
Consider `Cc1cccc(C)c1-c1cc2nc(n1)NS(=O)(=O)c1cccc(c1)C(=O)N(C[C@H]1CC[C@@H](O)CC1)[C@H](CC(C)(C)C)CO2` (single isomer, unassigned) [Compound 152], for which the activation at 10 µM under setting [6] was more than 60%.
Regarding `Cc1cccc(C)c1-c1cc2nc(n1)NS(=O)(=O)c1cccc(c1)C(=O)N(Cc1ccc(-c3cncnc3)cc1)[C@H](CC(C)(C)C)CO2` [Compound 144, (11R)-6-(2,6-dimethylphenyl)-11-(2,2-dimethylpropyl)-2,2-dioxo-12-[(4-pyrimidin-5-ylphenyl)methyl]-9-oxa-2λ^6-thia-3,5,12,19-tetrazatricyclo[12.3.1.14,8]nonadeca-1(18),4(19),5,7,14,16-hexaen-13-one], the EC50 (Table 10) was less than 1000 nM. Besides, the Emax under setting [4] was more than 60%.
On to `Cc1cccc(C)c1-c1cc2nc(n1)NS(=O)(=O)c1cccc(c1)C(=O)N(Cc1cccc(NC(C)C)n1)[C@H](CC(C)(C)C)CO2` [Compound 736], for which the EC50 (Table 11) was less than 1000 nM. Further, under setting [2], the Emax is more than 60%.
Regarding `Cc1cccc(C)c1-c1cc2nc(n1)NS(=O)(=O)c1cccc(c1)C(=O)N(Cc1ncc([C@@H](O)CO)cn1)[C@H](CC(C)(C)C)CO2` [Compound 1153], the EC50 (Table 13) was in the range of 1000 to 3000 nM. Besides, the Emax under setting [7] is more than 60%.
Take `Cc1cccc(C)c1-c1cc2nc(n1)NS(=O)(=O)c1cccc(c1)C(=O)N(Cc1ccc(-c3ccccc3)cn1)[C@H](CC(C)(C)C)CO2` [Compound 499]: the EC50 (Table 10) was less than 1000 nM. The Emax under setting [4] is more than 60%.
For `Cc1cccc(C)c1-c1cc2nc(n1)NS(=O)(=O)c1cccc(c1)C(=O)N(CC1CN(CC(C)(C)C)CCO1)[C@H](CC(C)(C)C)CO2` (some centres unmarked) [Compound 712], the EC50 (Table 11) was less than 1000 nM. Further, the Emax under setting [2] was more than 60%.
Consider `Cc1cccc(C)c1-c1cc2nc(n1)NS(=O)(=O)c1cccc(c1)C(=O)N(Cc1cccc(N3CC(C)(C)CC3(C)C)n1)[C@H](CC(C)(C)C)CO2` [Compound 597], for which the EC50 (Table 12) was less than 1000 nM. Besides, the Emax under setting [1] lay in the range of 30 to 60%.
With `Cc1cccc(C)c1-c1cc2nc(n1)NS(=O)(=O)c1cccc(c1)C(=O)N(Cc1ncccc1N(C)C)[C@H](CC(C)(C)C)CO2` [Compound 379], the EC50 (Table 10) is less than 1000 nM. Also, the Emax under setting [4] is more than 60%.
Regarding `Cc1cccc(C)c1-c1cc2nc(n1)NS(=O)(=O)c1cccc(c1)C(=O)N(Cc1ccc(C3CC(C)(C)CO3)cn1)[C@H](CC(C)(C)C)CO2` (stereo partly drawn) [Compound 156, (11R)-6-(2,6-Dimethylphenyl)-11-(2,2-dimethylpropyl)-12-[[5-(4,4-dimethyltetrahydrofuran-2-yl)-2-pyridyl]methyl]-2,2-dioxo-9-oxa-2λ6-thia-3,5,12,19-tetrazatricyclo[12.3.1.14,8]nonadeca-1(18),4(19),5,7,14,16-hexaen-13-one], the EC50 (Table 12) was less than 1000 nM. In addition, under setting [1], the Emax was more than 60%.
On to `COCCN1CCCC(CN2C(=O)c3cccc(c3)S(=O)(=O)Nc3nc(cc(-c4c(C)cccc4C)n3)OC[C@H]2CC(C)(C)C)C1=O` (some centres unmarked) [Compound 641], for which the EC50 (Table 11) was 1000 to 3000 nM. The Emax under setting [2] was more than 60%.
Consider `Cc1cccc(C)c1-c1cc2nc(n1)NS(=O)(=O)c1cccc(c1)C(=O)N(Cc1nc(C(C)(C)C)co1)[C@H](CC(C)(C)C)CO2` [Compound 167], for which, under setting [3], the activation at 10 µM was more than 600%.
Regarding `Cc1cccc(C)c1-c1cc2nc(n1)NS(=O)(=O)c1cccc(c1)C(=O)N(Cc1ncc(OC(C)C)cn1)C(C(C)C(C)C)CO2` (centres unmarked) [Compound 1466], the activation at 10 µM under setting [9] is more than 60%.
Turning to `Cc1cccc(C)c1-c1cc2nc(n1)NS(=O)(=O)c1cccc(c1)C(=O)N(CC(=O)N1CCOCC1C(C)C)[C@H](CC(C)(C)C)CO2` (some centres unmarked) [Compound 212], under setting [8], the activation at 10 µM is more than 600%.
Regarding `Cc1cccc(C)c1-c1cc2nc(n1)NS(=O)(=O)c1cccc(c1)C(=O)N(Cc1ncc(N3CCOC(C)(C)C3)cn1)[C@H](CC(C)(C)C)CO2` [Compound 1156], where the note is “Table 13”, the EC50 was less than 1000 nM. Moreover, the Emax under setting [7] was more than 60%.
As to `Cc1cccc(C)c1-c1cc2nc(n1)NS(=O)(=O)c1cccc(c1)C(=O)N(Cc1ncc(OC3CCC3)cn1)[C@H](CC(C)(C)F)CO2` [Compound 1509], under setting [9], the activation at 10 µM is more than 60%.
On to `Cc1cccc(C)c1-c1cc2nc(n1)NS(=O)(=O)c1cccc(c1)C(=O)N(CC(=O)N1C[C@@H](C)O[C@@H](C)C1)[C@H](CC(C)(C)C)CO2` [Compound 199], for which the activation at 10 µM under setting [8] was more than 600%.
Consider `Cc1cccc(C)c1-c1cc2nc(n1)NS(=O)(=O)c1cccc(c1)C(=O)N(Cc1ccc(C3CCOCC3)cn1)[C@H](CC(C)(C)C)CO2` [Compound 52, (11R)-6-(2,6-Dimethylphenyl)-11-(2,2-dimethylpropyl)-2,2-dioxo-12-[(5-tetrahydropyran-4-yl-2-pyridyl)methyl]-9-oxa-2λ^6-thia-3,5,12,19-tetrazatricyclo[12.3.1.14,8]nonadeca-1(18),4(19),5,7,14,16-hexaen-13-one], for which the EC50 (Table 11) is less than 1000 nM. Also, the Emax under setting [2] is more than 60%.
With `Cc1cccc(C)c1-c1cc2nc(n1)NS(=O)(=O)c1cccc(c1)C(=O)N(CC(=O)NCC1CCCC1)[C@H](CC(C)(C)C)CO2` [Compound 228], the activation at 10 µM under setting [3] lay within 30 to 60%.
